Results as given in PMC11251039, “Harnessing cholesterol uptake of malaria parasites for therapeutic applications” (EMBO Molecular Medicine, 2024).
Values joined by “and” are separate entries in the source; they are usually repeats but may differ in a detail not shown here. Equal entries are not always repeated.

Tests used:
[1] = test system: human embryonic kidney cells (HEK293); experiment: Human embryonic kidney cell viability assay (MTT); format: cell-based; settings: Homo sapiens; 96 h, HEK293; read-out: IC50, human embryonic kidney cell inhibition (viability)
In short: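 HEK293 cells, 5,000 per well, exposed to serially diluted compound for 96 hours; 10 µg/mL cycloheximide as background control. Viability by MTT (0.45 mg/mL, 2 h), SDS solubilisation, absorbance at 570 nm.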

[2] = test system: human foreskin fibroblasts (HFF); experiment: Human foreskin fibroblast growth inhibition assay (SYBR Safe); format: cell-based; settings: Homo sapiens, Fibroblast; 72 h, HFF; read-out: IC50, human fibroblast growth inhibition
Description: HFF cell growth inhibition assays commenced by adding 5000 cells to each well of a 96-well plate. 10 µg/mL cycloheximide was used as a no-growth control. DNA replication (indicating growth) was measured at the specified time using SYBR Safe DNA Gel Stain (Invitrogen 33102) and a fluorescence microplate reader. […]
Human Foreskin Fibroblast Growth Inhibition Assays:
The HFF cell line was maintained under routine culture conditions in DMEM containing 3.7 g/L NaHCO3 supplemented with 10% v/v newborn calf serum (NCS), 50 units/mL penicillin, 50 μg/mL streptomycin, 10 μg/mL gentamicin, 0.25 μg/mL amphotericin B, and 0.2 mM L-glutamine at 37 °C in a humidified 5% CO2 incubator. […]
HFF cells were detached from a flask using 0.25% Trypsin with 0.2 g/L EDTA (Sigma T4049) and washed with culture media. Cells were incubated with a serial dilution of each compound, or media/DMSO alone. Cycloheximide at 10 µg/mL was used as a positive control to determine background fluorescence. Approximately 5 000 cells were seeded in each well. Plates were incubated at 37 °C for 72 hours (until reaching confluency) and the media was removed. Plates were transferred to a -18 °C freezer. Plates were thawed and SYBR Safe DNA Gel Stain (final concentration 1/10,000) diluted in lysis buffer (as above) was added. Fluorescence was read at 490 nm excitation/ 520 nm emission on a FLUOstar Optima fluorescence plate reader. […]

[3] = test system: human hepatoma cells (Huh7); experiment: Human hepatoma viability assay (CellTiter-Blue); format: cell-based; settings: for Huh7 viability, dose-response data points (Figure 3F): replicate data points, listed as BC9B
Description: Huh7 hepatoma viability assays were conducted in the same manner as the P. berghei assays, with metabolic capacity (indicating viability) measured with a fluorescence microplate reader after incubation with CellTiter-Blue® (Promega) for 3 h.
Appendix Fraser/Curtis et al. […]
Human Hepatoma Viability Assays:
The Huh7 hepatoma cell line (ATCC) was maintained under routine culture conditions in Dulbecco's Modified Eagle Medium (DMEM) containing 3.7 g/L NaHCO3 supplemented with 10% foetal bovine serum (FBS), 100 units/mL penicillin, and 100 μg/mL streptomycin at 37 °C in a humidified 5% CO2 incubator.
Viability assays were performed in parallel to the P. berghei growth inhibition. 10,000 Huh7 cells were seeded in 96-well and dark-sided microplates (Greiner Bio One) and cultured at 37°C, 5% CO2 and 80% humidity. The next day, the media was replaced with compounds or solvent controls (DMSO) serially diluted in culture media. Media was partially replaced with new drug dilutions over the following two days. After 48 hours, CellTiter-Blue® (Promega) was added according to the manufacturer’s instructions and incubated for 3 hours. Fluorescence intensity was measured with 530/25 ex and 590/20 em in a Synergy HTX plate reader (Agilent).

[4] = test system: P. berghei liver stages; experiment: Plasmodium berghei liver stage growth inhibition assay (luminescence, in Huh7 cells); settings: for P. berghei liver stage growth, dose-response data points (Figure 3A): replicate data points; for P. berghei liver stage growth, dose-response data points (Figure 3A) / Figure 3E dose-response value (replicates): listed as BC9B

`COc1cc(NC(C)CCCNC(=O)CCC(=O)OC(C)C)c2ncccc2c1` (stereo not drawn) [PQ-link] was tested, and the IC50 [1] was 13.3 µM, the IC50 [2] was 98.2 µM and the “Huh7 viability, dose-response data points (Figure 3F)” value (shortened to “Huh7 viability”) ([3]; 0.015241580 uM, 0.0152416 µM) was 107.3 and 97.91 and 99.21 and 88.27 and 85.99 and 85.17 and 77.48 and 99.67 and 102.9. The “Huh7 viability” value ([3]; 0.045724740 uM, 0.0457247 µM) was 101.4 (2×) and 102.9 and 96.11 and 84.48 and 82.6 and 86.76 and 77.19 and 99.77, the “Huh7 viability” value ([3]; 0.137174210 uM, 0.137174 µM) was 100.3 and 97.53 and 89.5 and 87.16 and 86.15 and 91.05 and 98.93 and 94.82 and the “Huh7 viability” value ([3]; 0.411522630 uM, 0.411523 µM) was 98.17 and 99.16 and 96.93 and 83.82 and 84.25 and 87.07 and 70.92 and 100.4 and 90.7. For the same compound, the “Huh7 viability” value ([3]; 1.234567900 uM, 1.23457 µM) was 106.4 and 97.98 and 99.19 and 82.25 and 86.23 and 90.4 and 72.24 and 83.96 and 96.58, the “Huh7 viability” value ([3]; 3.703703700 uM, 3.7037 µM) was 96.27 and 98.44 and 90.47 and 77.12 and 78.19 and 82.37 and 76.62 and 90.94 and 92.11 and the “Huh7 viability” value ([3]; 11.111111100 uM, 11.1111 µM) was 98.42 and 95.99 and 90.47 and 70.14 and 68.57 and 67.94 and 56.41 and 72.23 and 71.76. The “Huh7 viability” value ([3]; 33.333333300 uM, 33.3333 µM) was 79.4 and 75.47 and 83.67 and 39.88 and 39.61 and 43.08 and 30.62 and 36.38 and 34.72, the “Huh7 viability” value ([3]; 100.000000000 uM) was 33.18 and 40.69 and 39.77 and 19.19 and 19.87 and 20.01 and 9.61 and 11.04 and 10.16 and the IC50 ([3]; Homo sapiens, Huh-7, 48 h, Huh7, read-out: IC50, human hepatoma inhibition (viability)) was 32.8 µM. The “P. berghei liver stage growth, dose-response data points (Figure 3A)” value (from here on “P. berghei liver stage growth”) ([4]; 0.015241580 uM) was 92.27 and 99.03 and 108.7 and 82.7 and 111.9 and 105.4 and 99.3 and 85.25 and 115.4, the “P. berghei liver stage growth” value ([4]; 0.045724740 uM) was 97.1 and 81.64 and 78.74 and 103.7 and 110.1 and 105.2 and 93.19 and 87.52 and 92.15 and the “P. berghei liver stage growth” value ([4]; 0.137174210 uM) was 100 and 94.2 and 80.68 and 93.41 and 113.2 and 98.29 and 109.9 and 94.24 and 87.26. The “Figure 3E dose-response value (replicates)” value (“Figure 3E dose-response value” below) ([4]; 0.238281250 uM) was 98.59, the “P. berghei liver stage growth” value ([4]; 0.411522630 uM) was 112.6 and 99.03 and 80.68 and 102.2 and 100.8 and 100.3 and 103.8 and 90.84 and 80.37 and the “Figure 3E dose-response value” value ([4]; 0.476562500 uM) was 90.54 and 104.6 and 95.37 and 97.54 and 101.7 and 100.2 and 97.21 and 100.9 and 86.29 and 94.55 and 90.62. For the same compound, the “P. berghei liver stage growth” value ([4]; 1.234567900 uM) was 102.9 and 94.2 and 112.6 and 111.7 and 103.5 and 88.53 and 119.6 and 97.91 and 82.29, the “Figure 3E dose-response value” value ([4]; 1.906250000 uM) was 91.51 and 91.73 and 86.54 and 84.53 and 94.62 and 101.5 and 100.5 and 102.9 and 93.23 and 96 and 85.81 and the “P. berghei liver stage growth” value ([4]; 3.703703700 uM) was 97.1 and 64.25 and 91.3 and 55.79 and 60.08 and 47.34 and 73.56 and 51.31 and 52.36. The “Figure 3E dose-response value” value ([4]; 3.812500000 uM) was 95.8 and 93.79 and 78.58 and 83.98 and 89.72 and 104 and 93.76 and 101.5 and 80.15 and 95.42 and 85.86, the “Figure 3E dose-response value” value ([4]; 7.625000000 uM) was 98.29 and 86.67 and 78.83 and 80.78 and 88.54 and 106.8 and 100.5 and 90.89 and 82.41 and 82.35 and 77.49 and the “P. berghei liver stage growth” value ([4]; 11.111111100 uM) was 24.64 and 16.91 and 28.5 and 18.53 and 18.77 and 20.08 and 31.94 and 26.35 and 21.2. The “Figure 3E dose-response value” value ([4]; 15.250000000 uM) was 60.3 and 56.28 and 80.98 and 77.04 and 83.07 and 85.06 and 90.81 and 88.28 and 61.89 and 72.05 and 69.51, the “Figure 3E dose-response value” value ([4]; 30.500000000 uM) was 25.91 and 29.38 and 68.25 and 66.32 and 65.97 and 65.87 and 62.35 and 59.29 and 31.73 and 40.4 and 41.06 and the “P. berghei liver stage growth” value ([4]; 33.333333300 uM) was 3.382 (2×) and 4.348 and 16.15 and 16.87 and 15.2 and 10.82 and 11.34 and 9.511. For the same compound, the “Figure 3E dose-response value” value ([4]; 61.000000000 uM) was 6.18 and 4.905 and 12.31 and 10.74 and 14.16 and 15.86 and 12.88 and 14.9 and 2.822 and 2.591 and 2.429, the “P. berghei liver stage growth” value ([4]; 100.000000000 uM) was -1.449 and -0.4831 and -2.415 and 1.984 and 3.77 and 1.865 and 3.403 and 2.705 and 2.007 and the IC50 ([4]; Plasmodium berghei, Huh-7, 48 h, read-out: IC50, P. berghei liver stage growth inhibition) was 5.7 µM.
